Key:
Stability in plasma = assay type: in vitro ADME; settings: resistance to hydrolysis, read-out: t½ in plasma
Procedure: (§1) FIG. 3: Assessment of drug-likeness of a selected compound, compound 3.17. a) Chemicophysical properties of bumetanide and compound 3.17 by LC-MS analysis. b) Comparison between urinary volume of WT mice (C57Bl/6N) two hours after treatment with bumetanide (0.2 mg/kg) and compound 3.17 (0.2 mg/kg). c) Assessment of urinary volume of Ts65Dn mouse model of Down syndrome and WT littermates two hours after treatment with compound 3.17 (0.2 mg/kg). Number in parenthesis: number of analyzed animals. Data represents mean±sem, and they are presented as % of the respective vehicle.
(§2) The selected NKCC1 inhibitor compound 3.17 has been evaluated for solubility in aqueous buffers, and stability in plasma and phase I metabolism in vitro (FIG. 3a).

[1] = Solubility in aqueous buffer; assay type: physicochemical; settings: PBS, pH 7.4, aqueous buffer
Procedure: as §1, §2

[2] = Phase I metabolism in liver microsomes; assay type: in vitro ADME; settings: read-out: t½ in liver microsomes
Procedure: as §1, §2

[3] = test system: valproic acid (VPA)-induced mouse model of autism; assay: VPA-induced mouse model of autism (three-chamber, male-female interaction, marble burying, grooming); assay type: in vivo; settings: VPA mice, 0.2 mg/kg i.p. seven days
Excerpt: Right panel, quantification of the social novelty index in mice treated with vehicle (WT, n=15, VPA, n=10) or 3.17 (WT, n=9, VPA, n=12); two-way ANOVA, Tukey's post hoc test, *P<0.05, **P<0.01. (b) Quantification of the interaction time in mice treated with vehicle (WT, n=15, VPA, n=10) or 3.17 (WT, n=10, VPA, n=11); two-way ANOVA, Tukey's post hoc test, **P<0.01. (c) Quantification of the number of marbles buried by mice treated with vehicle (WT, n=17, VPA, n=17) or 3.17 (WT, n=13, VPA, n=13); two-way ANOVA, Tukey's post hoc test, *P<0.05, **P<0.01. (d) Quantification of grooming time for mice treated with vehicle (WT, n=20, VPA, n=17) or 3.17 (WT, n=13, VPA, n=13); two-way ANOVA on Ranks, Tukey's post hoc test, *P<0.05, **P<0.01.
In vivo assessment of the efficacy of the selected NKCC1 inhibitor in the valproic acid (VPA)-induced mouse model of autism, to assess its ability to rescue altered social interaction. The VPA model was obtained by treating pregnant C57bl/6j dams at 12.5 days of pregnancy with 600 mg/kg (i.p.) of VPA dissolved in PBS. […] As control, the offspring of C57bl/6j dams treated at 12.5 with PBS was used. To assess the efficacy of the compound to restore social deficits, juvenile male offspring of both the VPA- and PBS-treated dams were treated (i.p injection) with 0.2 mg/kg of compound 3.17 dissolved in PBS or 2% DMSO dissolved in PBS as control for seven days. Then, mice were tested for their social ability and for repetitive behaviors in different tests. The social ability was tested in the three-chamber test (Silverman et al., 2010). In the three-chamber test, mice are singularly placed in a three-chamber box with openings between the chambers. After ten minutes of free exploration, a never-before-met intruder is placed under one pencil cup in one chamber and an empty pencil cup was placed in the other chamber. […] The social novelty index is measured as follows: [(time spent with the new intruder−time spent with the old intruder)/(time spent with the new intruder+time spent with the old intruder) %].
The sociability during male-female interaction was then assessed (Drapeau et al., 2018). In this test the tested mouse, after 5 minutes of habituation, is evaluated for its approach to a female intruder mouse that is placed for 5 minutes in the same cage. The time spent interacting is calculated as a measure of male-female social interaction. […] Finally, repetitive behaviors were evaluated in two different tests. […] The repetitive behavior is evaluated as the number of marbles buried in the litter. […] During the test, the mouse is placed in a cylindrical support and after 10 minutes of habituation, the repetitive grooming activity is measured during 5 minutes.

CN(C)S(=O)(=O)c1cc(C(=O)O)ccc1NCCCCCCCC(F)(F)F [Compound 3.17, 3-(dimethylsulfamoyl)-4-(8,8,8-trifluorooctylamino) benzoic acid]
half-life (Stability in plasma): > 2 h | solubility [1]: > 250 µM | half-life [2]: > 1 h | male-female interaction [3]: completely restored | repetitive behaviors (marbles buried, grooming time) [3]: completely restored | sociability index ([3]; three-chamber test): completely restored | social novelty index ([3]; three-chamber test): completely restored

Source: US20220184008A1, “MODULATORS OF INTRACELLULAR CHLORIDE CONCENTRATION” (FONDAZIONE ISTITUTO ITALIANO DI TECNOLOGIA, priority 2019, published 2022)
